“And” between values parts separate entries of the source, which are not always exact repeats. Identical values can stand only once.
Assays:
[1] = tested on: IL-6 release from A549 cells; assay: Cytokine inhibition assay, IL-6 release from A549 cells; type: cell-based; conditions: Homo sapiens, TNFα 2 ng ml^-1, read-out: IC50 (suppression of IL-6 release)
Description: A549 cells into 24-well plates were split at 40 000 cells/well. After 1 day growth, cells were treated with various steroids 1 h before overnight induction of inflammation by 2 ng ml^–1 TNFα according to literature. Sixteen hours after treatment, cell culture supernatants were subjected to anti-IL-6 Elisa (R&D Quantikine Elisa Human IL-6 Kit) according to the manual.

OVA-induced asthma = assay: OVA-induced mouse asthma model; type: in vivo, Balb/c mice; conditions: for repression of airway hyper-responsiveness (AHR): Balb/c mice; for % repression of AHR: ACH challenge 4 mg kg^-1
Description: As described before, 7–9-week-old female Balb/c mice (Taconic) were sensitized on days 0, 7 and 14 by i.p. injection of 50 μg OVA/1 mg alum in a total of 200 μl saline. Control mice received an equal volume of alum only. Mice were lightly anesthetized by isoflurane inhalation and challenged with intranasal OVA (100 μg in 30 μl saline) or saline on days 21–23, and were i.p. injected with different steroids. Twenty-four hours after the last challenge and treatment, pulmonary resistance was measured in response to a range of concentrations of intravenous acetylcholine using the forced oscillation technique with the FlexiVent system (SCIREQ) as previously described. Serum samples were analyzed for OVA-specific IgE using an ELISA (BD Biosciences, clone R35-118). Total and differential cell counts were determined by hemocytometer and by light microscopic evaluation of more than 300 cells per slide as previously described. After lavage, lungs were inflated with 10% buffered formalin to 25 cm H2O and transferred to 10% buffered formalin. Sections (5 μm) were stained with H&E for semi-quantitative assessment of inflammation and PAS for evaluation of mucus production. To quantify inflammation, H&E-stained lung sections were de-identified for blinding and scored for peribronchial and perivascular inflammatory cell infiltration: grade 0, no infiltration; grade 1, <25% of examined area; grade 2, 25–50%; grade 3, 51–75%; and grade 4, >75%. To quantify goblet cell hyperplasia, PAS stained lung sections were de-identified for blinding and scored for the percentage of PAS positive cells among airway epithelial cells: grade 0: none; grade 1 <25% of airway epithelial cells; grade 2, 25–50%; grade 3, 51–75%; and grade 4, >75%.

RAW264.7 cells = assay: Gene expression (microarray and quantitative PCR) in LPS-stimulated RAW264.7 cells; type: cell-based, mouse; conditions: RAW264.7, LPS, steroid 100 nM
Description: Mouse macrophage RAW264.7 cells were grown in 6-well plates to reach 80% confluence. The cells were pretreated with different steroids at 100 nM 1 h before overnight induction of inflammation by 1 μg ml^–1 LPS. Total RNA was isolated using a Qiagen mini RNA extraction kit (Valencia, CA, USA). Complementary DNA was synthesized from total RNA with an Invitrogen Superscript cDNA synthesis kit (Carlsbad, CA, USA). Target genes were quantified with a Power SYBR Green Real-Time PCR kit (Carlsbad, CA, USA) (ABI) in a StepOnePlus real-time PCR instrument (Applied Biosystems, Carlsbad, CA, USA). In every case, GAPDH (glyceraldehyde-3-phosphate dehydrogenase) was used as an internal control and data were analyzed by the ΔΔCt method. The specificity of target primers was tested both in a dissociation (melting) curve (Supplementary Figure S4) and against a water control. Primer sequence information is included in Supplementary Figure S4.
RAW264.7 cells were treated with designated steroids at 100 nM 1 h before overnight LPS stimulation of inflammation. Each treatment was duplicated. The following day, RNA samples were isolated using a Qiagen mini RNA extraction kit and applied to the Agilent Whole Mouse Genome 8x60K gene expression platform. Data were analyzed by the limma package in R program. Heat maps were generated by the HeatMap 2 package. Pathway analysis was done via DAVID Bioinformatics Resources 6.7 (NIAID) and Venn diagrams were generated by BioVenn.

[2] = Body weight (growth inhibition) of DBA/1 mice; type: in vivo; conditions: 1 mg kg^-1 daily i.p., 2 weeks, 7-week-old mice
Description: (§1) Figure 5 Examination of side effects of VSGC12 and FF at the effective dose. (a) Body weight of DBA/1 mice treated with the indicated daily dose of steroids for 2 weeks. Mice body weight was measured at day 0, 7 and 14. (b) Insulin-tolerance test of mice treated with the indicated daily doses of steroids for 7 days. Glucose level was measured at day 7 at various time points before and after insulin injection. Data were plotted as percent of the glucose level of time 0. (c) Plasma insulin levels of mice treated with the indicated daily doses of steroid for 7 days. (d) Spleen size and weight for mice treated with the indicated daily doses of steroid for 2 weeks. (e) Cortical bone thickness of femurs of mice treated with the indicated daily doses of steroid for 2 weeks. (f) Bone stiffness of femurs of mice treated with the indicated daily doses of steroid for 2 weeks. Mouse strain: DBA/1. Each treatment n=5, error bars indicate s.e.m., *P<0.05; **P<0.01; ***P<0.001.

[3] = Spleen size and weight (spleen atrophy); type: in vivo, DBA/1 mice; conditions: 1 mg kg^-1 daily, 2 weeks
Description: as §1

[4] = Bone density (μCT) and biomechanics testing of femurs; type: in vivo, DBA/1 mice; conditions: 1 mg kg^-1 daily, 2 weeks
Description: Femur bones were collected and scanned by μCT (Skyscan 1172 uCT) for quantification of trabecular and cortical bone parameters. The thresholds for μCT quantification of trabecular and cortical bone parameters were set at 80–100 and 100–110, respectively. μCT analyses of cortical bone parameters were performed on 100-μCT slices (1 mm total) from the middle shaft of femurs; trabecular parameters were assessed in 100-μCT slices (1 mm total) immediately below the distal growth plate of the femur. Following uCT scans, the femurs were individually tested on a TestResources 570 Force Transducer. Bones were thawed in PBS before being tested, to ensure no brittleness was due to freezing. […] Data points were collected at a frequency of 50 Hz and a deflection rate of 0.005 mm s^–1.

[5] = Insulin-tolerance test and plasma insulin level; conditions: 1 mg kg^-1 daily, 7 days
Description: DBA/1 mice (Taconic) were weighted just before the experiment. After 4 h fasting, mice were i.p. injected with 0.75 U kg^–1 of insulin (Huamlin R). Blood samples were taken from the tail at time 0 (before insulin injection), 15, 30, 45, 60, 90 and 120 min after injection. Plasma glucose levels were measured using an AlphaTrak glucose meter. All data were plotted as percent of glucose level at time 0. Endogenous insulin levels were measured using the Ultra Sensitive Mouse Insulin ELISA kit (Crystal Chem, Downers Groove, IL, USA).

[6] = tested on: granulocyte macrophage colony-stimulating factor release; set-up: method as in PMID 10433509; conditions: A549 cells; read-out: IC50 to inhibit granulocyte macrophage colony-stimulating factor release; cited from earlier work
[7] = target: β2-adrenergic receptor induction; set-up: method as in PMID 10433509; conditions: A549 cells; cited from earlier work
GR [8] = target: T1, GR (Homo sapiens, UniProt P04150); assay: MMTV-Luc induction reporter assay in AD293 cells; type: cell-based; conditions: 16 h
T1 construct: expressed in transfected cells; host or cells: AD293
T1 sequence (P04150 1-777): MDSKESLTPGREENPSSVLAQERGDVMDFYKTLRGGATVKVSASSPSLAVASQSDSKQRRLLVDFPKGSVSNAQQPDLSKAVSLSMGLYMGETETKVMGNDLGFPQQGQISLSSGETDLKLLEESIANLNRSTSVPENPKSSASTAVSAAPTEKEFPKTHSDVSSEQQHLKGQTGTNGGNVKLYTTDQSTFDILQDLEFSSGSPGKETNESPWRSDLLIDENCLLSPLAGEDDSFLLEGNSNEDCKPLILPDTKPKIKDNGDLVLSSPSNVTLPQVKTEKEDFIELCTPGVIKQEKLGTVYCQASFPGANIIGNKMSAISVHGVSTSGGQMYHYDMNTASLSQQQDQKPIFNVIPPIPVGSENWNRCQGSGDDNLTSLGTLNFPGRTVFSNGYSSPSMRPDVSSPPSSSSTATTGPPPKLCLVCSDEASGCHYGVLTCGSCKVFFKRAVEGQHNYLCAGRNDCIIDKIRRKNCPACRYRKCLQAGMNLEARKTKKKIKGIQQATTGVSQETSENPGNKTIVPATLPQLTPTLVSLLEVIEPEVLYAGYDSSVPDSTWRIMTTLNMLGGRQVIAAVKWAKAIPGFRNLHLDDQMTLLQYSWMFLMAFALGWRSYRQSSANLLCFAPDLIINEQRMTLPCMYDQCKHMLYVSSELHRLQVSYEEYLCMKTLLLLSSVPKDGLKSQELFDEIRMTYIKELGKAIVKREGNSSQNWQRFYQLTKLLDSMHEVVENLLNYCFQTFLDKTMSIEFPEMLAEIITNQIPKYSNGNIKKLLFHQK
Description: (§2) Similar to previous reports, for induction 100 ng pHHLuc (MMTV-Luc) plasmid, 0.1 ng pRShGR together with 5 ng phRGtkRenilla were transfected by X-tremeGENE 9 (Roche) into AD293 cells per well in 24-well plate. For transrepression, 10 ng AP-1-Luc or 10ng pNF-κB-luc, 100 ng pRShGR and 5 ng phRGtkRenilla were transfected into AD293 cells per well. We used the same transfection protocol for the MR and PR assays, except of the use of 0.1 ng MR or PR plasmid to substitute GR. One day after transfection, for induction, cells were directly treated by steroids for 16 h; for repression, cells were treated with either PMA at 0.6 ng ml^–1 (for AP-1 reporter) or TNFα at 2 ng ml^–1 (for NF-κB reporter), together with various steroids. Cells were collected by addition of 1× Passive Lysis Buffer (Promega, Madison, WI, USA), and luciferase activity was assayed by the Dual-Glo Luciferase system (Promega). Data were plotted as firefly luciferase activity normalized to Renilla luciferase activity in Relative Luciferase Units.

GR [9] = target: T1, GR; assay: AP-1-Luc repression reporter assay in AD293 cells; type: cell-based; conditions: AP-1 reporter, PMA 0.6 ng ml^-1
Description: as §2

GR [10] = target: T1, GR; assay: NF-κB-Luc repression reporter assay in AD293 cells; type: cell-based; conditions: TNFα 2 ng ml^-1
Description: as §2
Error bars indicate SD, n=3.

GR [11] = target: T1, GR; assay: In vitro H3-Dex competition GR ligand-binding assay; conditions: H3-DEX 15 nM, GR cytosol
Source text: The in vitro GR binding assay is similar to the one described previously. […] Data were plotted as a standard competition curve by GraphPad Prism 5.

GR [12] = target: T1, GR; conditions: cited from earlier work

## C[C@@H]1C[C@H]2[C@@H]3CCC4=CC(=O)C=C[C@]4(C)[C@@]3(F)[C@@H](O)C[C@]2(C)[C@@]1(O)C(=O)CO [DEX, dexamethasone, reference compound]
[1]
  IC50: 0.8 nM
OVA-induced asthma; 1 mg kg^-1 i.p.
  infiltration of immune responsive cells into the lungs (total and differential cell count): only a mild effect
  repression of airway hyper-responsiveness (AHR): neither VSG22 nor DEX can effectively repress the airway hyper-responsiveness

## C[C@@H]1C[C@H]2[C@@H]3C[C@H](F)C4=CC(=O)C=C[C@]4(C)[C@@]3(F)[C@@H](O)C[C@]2(C)[C@@]1(OC(=O)c1ccco1)C(=O)SCF [FF, fluticasone furoate, reference compound]
[1]
  IC50: 0.03 nM
RAW264.7 cells
  inhibition activity of pro-inflammatory cytokines (microarray, normalized to DEX): much stronger inhibition activity than DEX
OVA-induced asthma; 0.125 mg/kg
  % repression of total differentiated cells: 14%
  % repression of AHR: < 28% and 28%
OVA-induced asthma; 0.25 mg/kg
  % repression of total differentiated cells: 30%
  % repression of AHR: < 35% and 34%
OVA-induced asthma; 1 mg kg^-1 i.p.
  infiltration of immune responsive cells into the lungs (total and differential cell count): strongly repressed the infiltration of immune responsive cells into the lungs
  repression of airway hyper-responsiveness (AHR): strongly suppress the AHR to the basal level
OVA-induced asthma; 1 mg kg^-1 i.p., grade 0-4
  histology score, PAS staining: 1.5
  histology score, hematoxylin and eosin staining: 0.83
OVA-induced asthma; 1 mg/kg, OVA+DMSO 0, saline 100
  % repression of AHR: 95%
OVA-induced asthma; 1 mg/kg, saline 100, OVA+DMSO 0
  % repression of total differentiated cells: 94%
OVA-induced asthma; judged from AHR, i.p.
  minimal dose to maximally repress the inflammation (maximal effective dose): 1 mg kg^–1
OVA-induced asthma; lower doses (0.25, 0.125, 0.0625 mg kg^-1)
  OVA-IgE levels: unexpectedly higher than the vehicle control
[2]
  growth inhibition (body weight): significant growth inhibition
[3]
  atrophy of the spleen: dramatic shrinkage of the spleen
[4]
  bone strength (stiffness) of femurs: dramatic decrease of bone strength in terms of stiffness
[4]; μCT
  cortical bone thickness of femurs: dramatic decrease of the cortical bone thickness
[5]
  insulin resistance in insulin-tolerance test: hyper-insulin resistance
  plasma (endogenous) insulin level: dramatic increase of the endogenous insulin level

## CCC(=O)O[C@]1(C(=O)SCF)[C@H](C)C[C@H]2[C@@H]3C[C@H](F)C4=CC(=O)C=C[C@]4(C)[C@@]3(F)[C@@H](O)C[C@@]21C [FP, fluticasone propionate]
[6]
  IC50: 0.018 nM
[7]
  EC50: 1.1 nM

## CON(C)C(=O)C1(OC(=O)c2ccco2)CCC2C3CCC4=Cc5c(cnn5-c5ccccc5)CC4(C)C3C(O)CC21C (stereo not drawn) [VSG22]
GR [8]
  EC50: 0.74 nM
GR [9]
  IC50: 0.04 nM
GR [10]
  IC50: 0.1 nM
GR [11]
  IC50: 4.1 nM
[1]
  IC50: 0.07 nM
RAW264.7 cells
  inhibition activity of pro-inflammatory cytokines (microarray, normalized to DEX): much stronger inhibition activity than DEX
OVA-induced asthma; 1 mg kg^-1 i.p.
  repression of airway hyper-responsiveness (AHR): neither VSG22 nor DEX can effectively repress the airway hyper-responsiveness
GR [12]
  increase in potency relative to the original backbone VSG24: more than 1 000 fold
